The values below come from patent US8551958B2, “Galactosylated pro-drugs of non-steroidal anti-inflammatories with improved pharmacokinetic characteristics and reduced toxicity of the starting drug” (Stewart Italia Srl, priority 2008, dated 2013).

Molecules are shown by their SMILES. “Also recorded” adds a separate entry of the source. Bounds are passed on as bounds.

A short description of series [1]: Chemical stability of the pro-drug (phosphate buffer pH 7.4; HCl 0.1 N pH 1), HPLC. It counts as physicochemical. Particulars: in the dark. The protocol: For the stability study, the solutions of pro-drug were prepared by dissolving an aliquot of Ketogal in a phosphate buffer at pH 7.4, or else in a solution of HCl 0.1 N (pH 1), as regards chemical stability, or else in a plasma specimen, for enzymatic stability. The solutions were kept in the dark, at a temperature of 37° C., for 24 hours. After each hour an aliquot of specimen was taken. In the case of plasma, said aliquot was previously extracted with acetonitrile (1:2), “vortexed” and centrifuged at 3000 r.p.m. for 10 min. The supernatant was taken and used for analysis at HPLC with diode detector. The half-lives for chemical stability and enzymatic stability were calculated by quantizing, in time, the percentage of pro-drug that remained in solution. For the chromatographic separations, a 1090L HPLC (Hewlett-Packard, Palo Alto, USA) was used, coupled to a diode detector HP 1040A. A Phenomenex Luna C18 (250×4.6 mm, 5 μm) column was used. The wavelength used was 313 nm. The mobile phase was constituted by acetonitrile and an aqueous solution of phosphoric acid […] (pH 3) in the ratio of 68:32. The flow was 1 mL/min, with an injection volume of 20 μl. All the reagents and the solvents used were of analytical degree. The distilled and deionized water was purified by means of a Milli Q system (Millipore). The retention times of the compounds were: ketorolac: 6.7 min; Ketogal: 3.8 min. As internal standard tolmetin was used (9.3 min). The straight line of calibration for quantification of the compounds was constructed using standard solutions with concentrations of between 0.1 and 100 μg/ml. The linearity was obtained with a coefficient of regression (R^2) of approximately 0.998.
For the study of the stability, the solutions of pro-drug were prepared by dissolving an aliquot of Flugal in a phosphate buffer at pH 7.4, as regards chemical stability, or else in a plasma specimen, for enzymatic stability. The solutions were kept in the dark, at a temperature of 37° C., for 24 hours. After each hour an aliquot of specimen was taken. In the case of the plasma said amount was previously extracted with acetonitrile (1:2), “vortexed”, and centrifuged at 3000 r.p.m. for 10 min. The supernatant was taken and used for analysis at HPLC with diode detector. The half-lives for the chemical stability and enzymatic stability were calculated by quantizing, in time, the percentage of pro-drug that remained in solution. A 1090L HPLC (Hewlett-Packard, Palo Alto, USA) coupled to a diode detector HP 1040A was used for the chromatographic separations. The column used was a Supelcosil LC-18, 250×4.6 mm, particle size […]. The volume injected was […] and the flow of 1 mL/min. The mobile phase was constituted by a mixture of aqueous CH3CN/H3PO4 1 mM (pH 3) [32:68]. For the quantitative determination reading was made at 250 nm. The retention times of the various compounds involved in the analysis were: for Flugal 6 min and for flurbiprofen 11 min. All the reagents and the solvents used were of analytical degree. The distilled and deionized water was purified by means of a Milli Q system (Millipore). The straight line of calibration for the quantification of the compounds was constructed using standard solutions with concentrations of between 0.1 and 100 μg/ml. Linearity was obtained with a coefficient of regression (R^2) of approximately 0.998. From the results of said analysis (illustrated in Table 3) it emerges that the pro-drug Flugal has a good chemical stability and a good susceptibility to enzymatic hydrolysis.
Chemical stability was assessed also at pH 1.0 in a solution of HCl 0.1N as described.
For the stability study, the solutions of pro-drug were prepared by dissolving an aliquot of Okigal in a phosphate buffer at pH 7.4, or else in a solution of HCl 0.1 N (pH 1), as regards chemical stability, or else in a plasma specimen, for enzymatic stability. The solutions were kept in the dark, at a temperature of 37° C., for 24 hours. […]

The test system of series [2] is male Swiss mice. Description: Chronic and sub-chronic experiments: liver, kidney and stomach examination. It counts as in vivo. The procedure:
(§1) Animals were sacrificed and then liver, stomach and kidney were collected in glass tubes and analysed histologically and biochemically.
(§2) Liver samples were fixed in 10% buffered formalin and embedded in paraffin, sliced, and stained with hematoxylin & eosin (H&E) for assessment of liver pathology. […] To confirm histological data, western blot analysis for TNF-alpha, IL-6 and malonyldialdehyde assay were then performed in liver lysates.

Series [3] deals with male Swiss mice. Nature of the series: Ulcerogenicity studies, ketorolac and Ketogal (gastric lesions). To be noted: oral, Ketogal 16.3 mg/kg. Type of series: in vivo. The protocol: The gastric lesions were evaluated in male Swiss mice. To the fasted animals (16-18 h) were administered, by oral route, ketorolac (10 mg/kg), Ketogal (16.3 mg/kg), or the vehicle. After 4 hours, the mice were sacrificed and the stomach removed, cut along the major curvature, washed with physiological solution, and the mucous was examined for evaluation of the presence of petechias and/or gastric lesions. A “score” of 1 was assigned to the petechias, and a “score” based on the diameter (a “score” of 5 for lesions of a diameter of less than 1 mm; a “score” of 10 for lesions with a diameter of more than 1 mm) was, instead, assigned to the lesions.

In series [4] the test system is writhing induced by magnesium sulphate. Nature of the series: Writhing induced by magnesium sulphate (visceral pain). It counts as in vivo, mouse. Particulars: ketorolac 0.01 to 10 mg/kg, Ketogal in equimolar dose; 1 hour before magnesium sulphate 120 mg/kg. The protocol: In order to determine whether ketorolac and Ketogal are able to inhibit visceral pain, the effects of these compounds on “writhing” induced by magnesium sulphate were tested. Magnesium sulphate induces a reversible response when injected by intraperitoneal route in the mouse. The administration of 120 mg/kg of magnesium sulphate induces an average of 6±0.9 episodes of “writhing” in the mouse (n=6).
A general note: An intraperitoneal irritant provokes the stretching counted in writhing tests.

The test system of a further series is PPAR-gamma. Description: Western blot, stomach, PPAR-gamma protein expression. It counts as in vivo, mice. To be noted: ketorolac 10 mg/Kg, ketogal 16.3 mg/Kg, oral, 3, 5 and 7 days.
Description: as §1

The next series relates to TNF-alpha. Description: Western blot in liver lysates, TNF-alpha. It counts as in vivo, mice. To be noted: ketogal 16.3 mg/Kg oral for 3, 5 and 7 days. The protocol:
as §1, §2
On the technique in general: In western blotting, separated proteins are transferred to a membrane and probed.

The test system of series [5] is writhing induced by acetic acid. Description: Writhing test induced by acetic acid. Type of series: in vivo, mice. The procedure:
The analgesic activity was studied using the “writhing test” using acetic acid and using magnesium sulphate. To the mice there was administered by intraperitoneal route 1 mL of solution at 1% of acetic acid, and the number of writhing events was evaluated for 20 min, after 5 min from administration of the solution of acetic acid. Writhing is defined as a contraction of the abdominal muscles accompanied by elongation of the body and of the rear legs. Ketorolac and Ketogal were administered by oral route 60 min prior to administration of the solution of acetic acid. The analgesic effect is expressed in number of writhing events as compared to the control.

`O=C(c1ccccc1)c1ccc2n1CC[C@@H]2C(=O)OCC1O[C@H](O)C(O)C(O)[C@H]1O` (mixture of isomers) [Ketogal, ketorolac-D-galactos-6′-yl ester]: the “pH 7.4 T½” value in series [1] (phosphate buffer at pH 7.4, 37° C.) was more than 4 hours. Also, the “pH 1 T½” value in series [1] (solution of HCl 0.1 N (pH 1), 37° C.) is recorded as 2.1 hours. Further, the “Liver histology (H&E)” value in the series on male Swiss mice [2] (ketogal 16.3 mg/Kg oral for 3, 5 and 7 days) is “normal liver histology”. For the same compound, the “Hepatic inflammation and/or damage (biochemical analysis)” value in the series with male Swiss mice [2] (ketogal 16.3 mg/Kg oral for 3, 5 and 7 days, liver lysates) is “no hepatic inflammation and/or damage”. Further, in the series with male Swiss mice [2] (ketorolac 10 mg/Kg, ketogal 16.3 mg/Kg, oral, after 3, 5 and 7 days), the Kidney histology entry is on record as “normal kidney histology”. The “Stomach samples, ulcerogenicity” value in the series on male Swiss mice [2] (ketorolac 10 mg/Kg, ketogal 16.3 mg/Kg, oral, for 3 days) was “undamaged and similar to control”. In addition, in the series on male Swiss mice [3] (equimolar to ketorolac 10 mg/kg), the “Gastrolesive properties (in words)” value is on record as “does not cause ulcers; also recorded: only a slight irritation of the gastric mucosa, with an almost total absence of ulcers”. Further, in the series with male Swiss mice [3] (ketorolac 10.0 mg/kg, after 4 hours, score 1 petechias, 5 or 10 lesions), the Degree of ulcerogenicity came to 1. The compound also returned a Number of ulcers with male Swiss mice [3] (ketorolac 10.0 mg/kg, fasted mice, after 4 hours) of 1 ± 0.4. The “Inhibition of writhing induced by magnesium sulphate” value in series [4] is “able to inhibit this response in a dose-dependent way”. Moreover, the “Gastric PPAR-gamma protein expression” value in the series on PPAR-gamma was “not inhibited”. The “TNF-alpha level in liver” value in the series on TNF-alpha is listed as “no different compared to control mice”. Further, the “Analgesic activity compared with ketorolac” value in series [5] (Ketogal 0.163 mg/kg versus ketorolac 0.1 mg/kg, oral and subcutaneous administration) is “better analgesic and anti-inflammatory activity than ketorolac”. Further, in series [5] (oral, 60 min prior to acetic acid, ketorolac 0.01-10 mg/kg, Ketogal 0.0163-16.3 mg/kg), the “Analgesic effect (number of writhing events compared to control)” value is given as “dose-dependent analgesic effect of higher than 0.163 mg/kg”.
